This is an account of results in patent publication US11331298B2, “Powder solid dispersions comprising quercetin, process for their preparation and formulations thereof” (INDENA S.P.A., priority 2017, dated 2022).

Data set [1] is described as follows: Solubility studies in simulated gastro-intestinal fluids. It is filed as physicochemical. The following applies: excess analyte, magnetic stirring 2 hours, HPLC. From the text: Quercetin dihydrate, quercetin powder solid dispersion obtained in Example 1 and a mechanical (physical) mixture of the component of the said solid dispersion were subjected to comparative solubility experiments, in the presence of high excess of analyte, using the following simulated gastro-intestinal fluids: • fasted state simulated gastric fluid; • fasted state simulated intestinal fluid; • fed state simulated intestinal fluid.
Equivalent amounts of quercetin were used during the experiments. Quercetin dihydrate, quercetin powder solid dispersion of Example 1 and the mechanical (physical) mixture were kept under magnetic stirring for 2 hours. The supernatant was filtered and the quercetin concentration was calculated by HPLC analysis.

The nature of data set [2]: Single dose randomized, crossover pharmacokinetic study in healthy volunteers. It is filed as in vivo, human. To be noted: fasting, single oral dose, 500 mg film-coated tablets, mean. The method, then: A single dose randomized, crossover pharmacokinetic study in healthy volunteers under fasting conditions was performed using film-coated tablets containing 500 mg of (unformulated) quercetin dihydrate, 500 mg of quercetin (40%) powder solid dispersion (corresponding to 200 mg of quercetin dihydrate) and 250 mg of quercetin (40%) powder solid dispersion (corresponding to 100 mg of quercetin dihydrate).

Where only a bound is given, the exact number is not on record here.

Take `O=c1c(O)c(-c2ccc(O)c(O)c2)oc2cc(O)cc(O)c12` [Quercetin dihydrate, 2-(3,4-Dihydroxyphenyl)-3,5,7-trihydroxy-4H-chromen-4-one]: the results for the “Quercetin concentration (solubility)” value in data set [1] (Fasted state simulated gastric fluid (pH 1.6)), in data set [1] (Fasted state simulated intestinal fluid (pH 6.5)) and in data set [1] (Fed state simulated intestinal fluid (pH 5.0)) were “<LOD”, 7.5 µg/mL and 19.1 µg/mL, respectively. In addition, the Cmax in data set [2] is 10.93 ng/mL. The same compound had an AUC(0-inf) in data set [2] (human, in vivo) of 90.1 ng·h/mL.

One may read the Cmax as the maximum level reached in the sampled fluid or tissue. What is called AUC(0-inf) is the area under the concentration-time curve extrapolated to infinity.
